The IC50 is the concentration that gives 50% inhibition. Read a high IC50 as lower potency.

This experiment concerns the target T1, ferroportin (Fpn) (Mus musculus, UniProt Q9JHI9).
T1 construct: endogenous in cells; host or cells: J774 mouse macrophage cell line, induced with Fe(III)NTA
T1 sequence (Q9JHI9 1-570): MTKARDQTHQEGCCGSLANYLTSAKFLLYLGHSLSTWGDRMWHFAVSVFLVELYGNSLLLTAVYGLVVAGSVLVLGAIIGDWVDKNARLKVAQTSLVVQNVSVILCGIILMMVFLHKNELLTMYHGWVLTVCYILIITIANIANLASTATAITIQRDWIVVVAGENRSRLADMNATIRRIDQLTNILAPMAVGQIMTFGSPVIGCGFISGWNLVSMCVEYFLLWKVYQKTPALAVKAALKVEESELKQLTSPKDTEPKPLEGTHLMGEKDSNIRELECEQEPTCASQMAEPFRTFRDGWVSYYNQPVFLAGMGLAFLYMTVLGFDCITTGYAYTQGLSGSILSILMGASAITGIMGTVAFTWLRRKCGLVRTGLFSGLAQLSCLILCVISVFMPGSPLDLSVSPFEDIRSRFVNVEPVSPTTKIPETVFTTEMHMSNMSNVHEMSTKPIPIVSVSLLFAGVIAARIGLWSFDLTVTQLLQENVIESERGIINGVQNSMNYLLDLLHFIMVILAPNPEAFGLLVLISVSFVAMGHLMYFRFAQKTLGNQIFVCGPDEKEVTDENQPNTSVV
The experiment in a line: Hepcidin Internalization Assay (J774). The format is cell-based. As to conditions: Average (AVE) IC50 of multiple measurements; inhibition of TMR-hepcidin (25 nM) internalization into J774 cells. The text has this: This cellular assay allows quantification of the binding of hepcidin to ferroportin (Fpn) through microscopic detection of internalization of a fluorescently labeled hepcidin into J774 cells. […] Binding of hepcidin to Fpn triggers internalization and degradation of both hepcidin and Fpn. […] Therefore, microscopic detection of cell-associated TMR fluorescence is a measure of hepcidin binding to Fpn and internalization of hepcidin and Fpn. If TMR-hepcidin is prevented from binding to Fpn, cellular TMR fluorescence remains low (Durrenberger et al, 2013). The effect of small molecular weight Fpn inhibitor compounds in this assay was evaluated in vitro as described below. […] After removal of the paraformaldehyde solution, cells were washed 3 times with PBS leaving 100 μl per well and the plates were sealed with foil plate seal. TMR (530-550 nm excitation/575-625 nm emission/400 ms exposure time) and Hoechst 33342 (360-370 nm excitation/420-460 nm emission /10 ms exposure time) fluorescence images were acquired using a […] imager (Olympus) with a 20× high NA objective. […] The acquired image data was analysed with the […] analysis software. […] IC50 values were calculated with the Sum(Mean) raw data using “log(inhibitor) vs. response” curve fitting of Prism 5 software (GraphPad Software Inc., version 5.02). For each data set the fit of the “log(inhibitor) vs. response (three parameters)” model was compared to the fit of the “log(inhibitor) vs. response - Variable slope (four parameters)” model and the IC50 data of the preferred model was used.
`O=C(NCc1ncccc1F)c1coc(CCNCCc2nc3ccccc3n2CCc2nc3ccccc3[nH]2)n1` [Example 44, 2-(2-((2-(1-(2-(1H-benzo[d]imidazol-2-yl)ethyl)-1 H-benzo[d]imidazol-2-yl)ethyl)amino)ethyl)-N-((3-fluoropyridin-2-yl)methyl)oxazole-4-carboxamide]: the IC50 came to 1 nM. This counts as single-digit nanomolar.

`COc1cccc(CCn2c(CCNCCc3nc(C(=O)NCc4ncccc4F)co3)nc3ccccc32)c1` [Example 45, N-((3-fluoropyridin-2-yl)methyl)-2-(2-((2-(1-(3-methoxyphenethyl)-1 H-benzo[d]imidazol-2-yl)ethyl)amino)ethyl)oxazole-4-carboxamide] came in with an IC50 of 0.8 nM. This IC50 and that of the molecule before are within 1.5-fold of each other.

As to `CCCCn1c(CCNCCc2nc(C(=O)NCc3ncccc3OC)co2)nc2ccccc21` [Example 46, 2-(2-((2-(1-butyl-1 H-benzo[d]imidazol-2-yl)ethyl)amino)ethyl)-N-((3-methoxypyridin-2-yl)methyl)oxazole-4-carboxamide], the midpoint of inhibition, the IC50, lay at 1 nM.

For `CCCCn1c(CCNCCc2nc(C(=O)NCc3ncccc3C(F)(F)F)co2)nc2ccccc21` [Example 47, 2-(2-((2-(1-butyl-1 H-benzo[d]imidazol-2-yl)ethyl)amino)ethyl)-N-((3-(trifluoromethyl)pyridin-2-yl)methyl)oxazole-4-carboxamide], the IC50 came to 8 nM.

Regarding `COCCOCCn1c(CCNCCc2nc(C(=O)NCc3ncccc3F)co2)nc2ccccc21` [Example 48, N-((3-fluoropyridin-2-yl)methyl)-2-(2-((2-(1-(2-(2-methoxyethoxy)ethyl)-1 H-benzo[d]imidazol-2-yl)ethyl)amino)ethyl)oxazole-4-carboxamide], the midpoint of inhibition, the IC50, lay at 2 nM.

`CCCCn1c(C2CCN(CCc3nc(C(=O)NCc4ncccc4F)co3)CC2)nc2ccccc21` [Example 49, 2-(2-(4-(1-butyl-1 H-benzo[d]imidazol-2-yl)piperidin-1-yl)ethyl)-N-((3-fluoropyridin-2-yl)methyl)oxazole-4-carboxamide] registered a concentration for half-maximal inhibition (IC50) of 3300 nM.

In turn, `O=C(NCc1ncccc1F)c1coc(CCNCCc2nc3ccccc3n2CC2CC2)n1` [Example 50, 2-(2-((2-(1-(Cyclopropylmethyl)-1 H-benzo[d]imidazol-2-yl)ethyl)amino)ethyl)-N-((3-fluoropyridin-2-yl)methyl)oxazole-4-carboxamide] came in with an IC50 of 0.8 nM.

On to `O=C(NCc1ncccc1F)c1coc(CCNCCc2nc3ccccc3n2CC2CCCCC2)n1` [Example 51, 2-(2-((2-(1-(cyclohexylmethyl)-1H-benzo[d]imidazol-2-yl)ethyl)amino)ethyl)-N-((3-fluoropyridin-2-yl)methyl)oxazole-4-carboxamide], for which the IC50 was determined as 0.8 nM.

Molecule `CCCCn1c(CC(C)(C)NCCc2nc(C(=O)NCc3ncccc3F)co2)nc2ccccc21` [Example 52, 2-(2-((1-(1-butyl-1 H-benzo[d]imidazol-2-yl)-2-methylpropan-2-yl)amino)ethyl)-N-((3-fluoropyridin-Z-yl)methyl)oxazole-4-carboxamide] registered an IC50 of 625 nM. This IC50 is about 780-fold higher than that of the molecule before.

Regarding `O=C(NCc1ncccc1F)c1coc(CCNCCc2nc3ccccc3n2CC(F)F)n1` [Example 53, 2-(2-((2-(1-(2,2-difluoroethyl)-1H-benzo[d]imidazol-2-yl)ethyl)amino)ethyl)-N-((3-fluoropyridin-2-yl)methyl)oxazole-4-carboxamide], the IC50 was 5 nM.

Regarding `O=C(NCc1ncccc1F)c1coc(CCNCCc2nc3ccccc3n2Cc2ccccc2Cl)n1` [Example 54, 2-(2-((2-(1-(2-chlorobenzyl)-1H-benzo[d]imidazol-2-yl)ethyl)amino)ethyl)-N-((3-fluoropyridin-2-yl)methyl)oxazole-4-carboxamide], the IC50 came to 0.9 nM.

Consider `O=C(NCc1ncccc1F)c1coc(CCNCCc2nc3ccccc3n2-c2ccccc2)n1` [Example 55, N-((3-fluoropyridin-2-yl)methyl)-2-(2-((2-(1-phenyl-1 H-benzo[d]imidazol-2-yl)ethyl)amino)ethyl)oxazole-4-carboxamide], for which the IC50 amounted to 1.4 nM.

The molecule `CN(C)CCn1c(CCNCCc2nc(C(=O)NCc3ncccc3F)co2)nc2ccccc21` [Example 56, 2-(2-((2-(1-(2-(dimethylamino)ethyl)-1 H-benzo[d]imidazol-2-yl)ethyl)amino)ethyl)-N-((3-fluoropyridin-2-yl)methyl)oxazole-4-carboxamide] yielded an IC50 of 9 nM.

With `CC(C)OCCn1c(CCNCCc2nc(C(=O)NCc3ncccc3F)co2)nc2ccccc21` [Example 57, N-((3-fluoropyridin-2-yl)methyl)-2-(2-((2-(1-(2-isopropoxyethyl)-1 H-benzo[d]imidazol-2-yl)ethyl)amino)ethyl)oxazole-4-carboxamide], the IC50 stood at 1.4 nM.

`O=C(NCc1ncccc1F)c1coc(CCNCCc2nc3ccccc3n2Cc2ccc(Cl)cc2)n1` [Example 58, 2-(2-((2-(1-(4-chlorobenzyl)-1H-benzo[d]imidazol-2-yl)ethyl)amino)ethyl)-N-((3-fluoropyridin-2-yl)methyl)oxazole-4-carboxamide] registered an IC50 of 0.8 nM. This IC50 lies about 1.7-fold lower than the previous one.

Regarding `CCCCn1c(C(C)(C)CNCCc2nc(C(=O)NCc3ncccc3F)co2)nc2ccccc21` [Example 60, 2-(2-((2-(1-butyl-1 H-benzo[d]imidazol-2-yl)-2-methylpropyl)amino)ethyl)-N-((3-fluoropyridin-2-yl)methyl)oxazole-4-carboxamide], half-maximal inhibition (IC50) required 355 nM.

`CCCCn1c(C2(CNCCc3nc(C(=O)NCc4ncccc4F)co3)CCCCC2)nc2ccccc21` [Example 61, 2-(2-(((1-(1-butyl-1H-benzo[d]imidazol-2-yl)cyclohexyl)methyl)amino)ethyl)-N-((3-fluoropyridin-2-yl)methyl)oxazole-4-carboxamide] came in with a half-maximal inhibitory concentration (IC50) of 1430 nM.

Molecule `O=C(NCc1ncccc1F)c1coc(CCNCCc2nc3ccccc3n2Cc2ccncn2)n1` [Example 62, N-((3-fluoropyridin-2-yl)methyl)-2-(2-((2-(1-(pyrimidin-4-ylmethyl)-1 H-benzo[d]imidazol-2-yl)ethyl)amino)ethyl)oxazole-4-carboxamide] gave an IC50 of 8.5 nM.

The molecule `COc1cccc(-n2c(CCNCCc3nc(C(=O)NCc4ncccc4F)co3)nc3ccccc32)c1` [Example 63, N-((3-fluoropyridin-2-yl)methyl)-2-(2-((2-(1-(3-methoxyphenyl)-1H-benzo[d]imidazol-2-yl)ethyl)amino)ethyl)oxazole-4-carboxamide] registered a half-maximal inhibitory concentration (IC50) of 0.8 nM. Compared with the last molecule, the IC50 is about 11-fold lower.

Regarding `O=C(NCc1ncccc1F)c1coc(CCNCCc2nc3ccccc3n2-c2cccc(Cl)c2)n1` [Example 64, 2-(2-((2-(1-(3-chlorophenyl)-1 H-benzo[d]imidazol-2-yl)ethyl)amino)ethyl)-N-((3-fluoropyridin-2-yl)methyl)oxazole-4-carboxamide], the IC50 came to 1.3 nM.

As for `O=C(NCc1ncccc1F)c1coc(CCNCCc2nc3cc4c(cc3n2CC2CC2)OCCO4)n1` [Example 65], the IC50 worked out at 1.2 nM. The IC50 values of the last two molecules are within 1.5-fold of each other.

As for `COCCOCCn1c(CCNCCc2nc(C(=O)NCc3ncccc3OC)co2)nc2cc3c(cc21)OCCO3` [Example 66, 2-(2-((2-(1-(2-(2-methoxyethoxy)ethyl)-6,7-dihydro-1 H-[1,4]dioxino[2′,3′:4,5]benzo[1,2-d]imidazol-2-yl)ethyl)amino)ethyl)-N-((3-methoxypyridin-2-yl)methyl)oxazole-4-carboxamide], the midpoint of inhibition, the IC50, lay at 5 nM.

Source of the values: US20240343722A1 (VIFOR (INTERNATIONAL) AG, priority 2021, published 2024).
